From article PMC7591571, “Identification of a juvenile-hormone signaling inhibitor via high-throughput screening of a chemical library” (Scientific Reports, 2020)

What was measured:
[1] = system: T1, JH receptor, methoprene-tolerant protein (Met) / SRC, endogenous in BmN_JF&AR cells; assay: kJHRE luciferase reporter assay in stable BmN_JF&AR cells; format: cell-based; details: agonist, 25 °C, 20 h, pathway read-out
T1 construct: gene Met1; endogenous receptor of BmN cells; receptor not overexpressed; Met paralogue not specified

[2] = system: T1, JH receptor, methoprene-tolerant protein (Met) / SRC, endogenous in BmN_JF&AR cells; assay: as above; format: cell-based; details: inhibition of 1 nM JH I response; 25 °C; 20 h; competitive antagonist-like; pathway read-out, direct binding to receptor not demonstrated; read-out: EC50 (the source's name)

CC/C(=C\CC/C(C)=C/C(=O)OC)CC[C@H]1O[C@@]1(C)CC [JH I]
EC50 [1]: 0.37 nM

CC(C)(C)c1ccc(OCCn2cncn2)c(Cl)c1 [JHSI48, N-[2-(4-tert-butyl-2-chlorophenoxy)ethyl]-1H-1,2,4-triazole]
IC50 [2]: 320 nM
